Molecules are shown by their SMILES. Structures can show the parent of a compound that is named as a salt.

The assay concerns the target T1, human NHE3 (Homo sapiens, UniProt P48764).
T1 sequence (P48764 26-834): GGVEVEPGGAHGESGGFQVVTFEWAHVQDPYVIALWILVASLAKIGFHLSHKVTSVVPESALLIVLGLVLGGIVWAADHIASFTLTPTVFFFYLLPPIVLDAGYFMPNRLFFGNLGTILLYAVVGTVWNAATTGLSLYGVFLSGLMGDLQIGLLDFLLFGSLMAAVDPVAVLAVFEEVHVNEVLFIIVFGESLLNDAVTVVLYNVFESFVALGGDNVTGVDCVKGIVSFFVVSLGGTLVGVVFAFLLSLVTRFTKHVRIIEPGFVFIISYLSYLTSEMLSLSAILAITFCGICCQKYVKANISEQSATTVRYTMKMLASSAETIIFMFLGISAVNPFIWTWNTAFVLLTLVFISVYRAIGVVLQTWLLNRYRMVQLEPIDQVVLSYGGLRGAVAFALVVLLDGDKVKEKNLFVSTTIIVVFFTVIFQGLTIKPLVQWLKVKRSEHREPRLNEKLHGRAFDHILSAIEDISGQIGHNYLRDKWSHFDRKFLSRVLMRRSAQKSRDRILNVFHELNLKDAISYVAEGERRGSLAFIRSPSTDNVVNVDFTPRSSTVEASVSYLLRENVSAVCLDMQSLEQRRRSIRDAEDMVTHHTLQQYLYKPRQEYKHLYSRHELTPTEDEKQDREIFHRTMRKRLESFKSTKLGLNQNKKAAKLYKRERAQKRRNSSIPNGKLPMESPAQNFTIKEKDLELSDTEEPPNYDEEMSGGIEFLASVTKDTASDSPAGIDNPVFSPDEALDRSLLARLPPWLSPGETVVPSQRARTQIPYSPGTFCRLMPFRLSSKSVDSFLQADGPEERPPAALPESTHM
Kind of assay: NHE3 inhibition test (recovery of intracellular pH in cell line stably expressing human NHE3). As to conditions: OK cells deficient in endogenous NHE stably expressing human NHE3; BCECF fluorescence, initial rate of pH recovery; read-out: human NHE3 inhibitory activity IC50. In kind it is cell-based. Here is the method: (1) Preparation of Cell Line Deficient in Endogenous NHE
The cell line deficient in endogenous NHE was prepared according to the method of Jacques Pouyssegur et al. (Proc. Natl. Acad. Sci. USA. 1984, Vol. 81, 4833-4837) using opossum kidney (OK) cells (ATCC).
(2) Preparation of Expression Plasmid and Cell Line Stably Expressing Human NHE3
The expression plasmid was constructed by inserting a human NHE3 (SLC9A3, Accession No. NM_004174) cDNA sequence (GeneCopoeia, Inc.) into a pcDNA3.2/V5-DEST vector (Life Technologies Corp.).
The OK cells deficient in endogenous NHE were transfected with the constructed human NHE3 expression plasmid to prepare stably expressing cells. The transfection was carried out by electroporation using a Nucleofector 2b device (Lonza Group Ltd.). A stably expressing cell line was selected in medium supplemented with 500 μg/mL Geneticin (Life Technologies Corp.) and isolated.
NHE3 activity measurement method using cell: The activity was determined by using the NHE3-mediated recovery of intracellular pH occurring after intracellular acidification, as an index. The intracellular pH was measured by a partial modification of the pH-sensitive fluorescent indicator method reported by Tsien et al. (Proc. Natl. Acad. Sci. USA., 1984, 81, 7436-7440).
The cell line stably expressing human NHE3 was inoculated on a poly-D-lysine-coated 96-well plate (Greiner Bio-one) and cultured overnight. […] Then, Hank's balanced salt buffer solution containing 0.25 μM BCECF-AM (Dojindo Laboratories) was added to the cells, which were then incubated at 37° C. for 30 minutes. […] The cells thus incubated in the NH4Cl buffer solution were washed with NH4Cl-free buffer solution (133.8 mM choline chloride, […], 5 mM glucose, 4.7 mM KCl, 1.25 mM CaCl2, 1.25 mM MgCl2, 0.97 mM K2HPO4, 0.23 mM KH2PO4, pH 7.4) to decrease the intracellular pH. After the washing step, 70 μL of a test compound solution prepared with the NH4Cl-free buffer solution was added to the cells, and 70 iμL of sodium ion-containing buffer solution (133.8 mM NaCl, 10 mM HEPES, 5 mM glucose, 4.7 mM KCl, 1.25 mM CaCl2, 1.25 mM MgCl2, 0.97 mM Na2HPO4, 0.23 mM NaH2PO4, pH 7.4) was added thereto in a measurement system FDSS6000 (Hamamatsu Photonics K.K.) to start the recovery of pH. The recovery of intracellular pH was monitored using BCECF fluorescence (excitation wavelength: 480 nm, fluorescence wavelength: 520 to 560 nm), and the initial rate of the pH recovery was plotted. The recovery of pH without test compound was defined as the maximum recovery, and the test compound concentration necessary to inhibit 50% of the maximum recovery was calculated as an IC50 value.
Consider `CN1Cc2c(Cl)cc(Cl)cc2[C@H](c2cccc(-c3nn[nH]n3)c2)C1` [Example 2-1, (4S)-6,8-dichloro-2-methyl-4-[3-(2H-tetrazol-5-yl)phenyl]-1,2,3,4-tetrahydroisoquinoline], for which the 50% inhibitory concentration (IC50) was determined as 89.3 nM.
On to `Cc1nnc(-c2cccc([C@@H]3CN(C)Cc4c(Cl)cc(Cl)cc43)c2)[nH]1` [Example 3-1, (4S)-6,8-Dichloro-2-methyl-4-[3-(3-methyl-1H-1,2,4-triazol-5-yl)phenyl]-1,2,3,4-tetrahydroisoquinoline hydrochloride], for which the IC50 was 49.1 nM.
Under `Cc1nc(-c2cccc([C@@H]3CN(C)Cc4c(Cl)cc(Cl)cc43)c2)no1` [Example 4-1, (4S)-6,8-Dichloro-2-methyl-4-[3-(5-methyl-1,2,4-oxadiazol-3-yl)phenyl]-1,2,3,4-tetrahydroisoquinoline hydrochloride] stands 554 nM; under `Cc1cc(-c2cccc([C@@H]3CN(C)Cc4c(Cl)cc(Cl)cc43)c2)on1` [Example 5-1, (4S)-6,8-Dichloro-2-methyl-4-[3-(3-methyl-1,2-oxazol-5-yl)phenyl]-1,2,3,4-tetrahydroisoquinoline hydrochloride], 760 nM.
With `CN1Cc2c(Cl)cc(Cl)cc2[C@H](c2cccc(-c3cn(CCOCCOCCNC(=O)NCCCCNC(=O)NCCOCCOCCn4cc(-c5cccc([C@@H]6CN(C)Cc7c(Cl)cc(Cl)cc76)c5)nn4)nn3)c2)C1` [Example 6-1, 1,1′-Butane-1,4-diylbis[3-(2-{2-[2-(4-{3-[(4S)-6,8-dichloro-2-methyl-1,2,3,4-tetrahydroisoquinolin-4-yl]phenyl}-1H-1,2,3-triazol-1-yl)ethoxy]ethoxy}ethyl)urea]], the IC50 amounted to 2.4 nM.
Regarding `CN1Cc2c(Cl)cc(Cl)cc2[C@H](c2cccc(-c3cn(CCOCCOCCNC(=O)CCC(=O)NCCOCCOCCn4cc(-c5cccc([C@@H]6CN(C)Cc7c(Cl)cc(Cl)cc76)c5)nn4)nn3)c2)C1` [Example 6-3, N,N′-Bis(2-{2-[2-(4-{3-[(4S)-6,8-dichloro-2-methyl-1,2,3,4-tetrahydroisoquinolin-4-yl]phenyl}-1H-1,2,3-triazol-1-yl)ethoxy]ethoxy}ethyl)butanediamide hydrochloride], the IC50 turned out to be 301 nM.
Take `CN1Cc2c(Cl)cc(Cl)cc2[C@H](c2cccc(-c3cn(CCOCCOCCNC(=O)[C@H](O)[C@@H](O)C(=O)NCCOCCOCCn4cc(-c5cccc([C@@H]6CN(C)Cc7c(Cl)cc(Cl)cc76)c5)nn4)nn3)c2)C1` [Example 6-6, (2R,3R)—N,N′-Bis(2-{2-[2-(4-{3-[(4S)-6,8-dichloro-2-methyl-1,2,3,4-tetrahydroisoquinolin-4-yl]phenyl}-1H-1,2,3-triazol-1-yl)ethoxy]ethoxy}ethyl)-2,3-dihydroxybutanediamide hydrochloride]: the IC50 is 75 nM.
In the case of `CN1Cc2c(Cl)cc(Cl)cc2[C@H](c2cccc(-c3cn(CCOCCOCCNC(=O)[C@@H](O)[C@H](O)[C@H](O)[C@@H](O)C(=O)NCCOCCOCCn4cc(-c5cccc([C@@H]6CN(C)Cc7c(Cl)cc(Cl)cc76)c5)nn4)nn3)c2)C1` [Example 6-7, (2R,3S,4R,5S)—N,N′-Bis(2-{2-[2-(4-{3-[(4S)-6,8-dichloro-2-methyl-1,2,3,4-tetrahydroisoquinolin-4-yl]phenyl}-1H-1,2,3-triazol-1-yl)ethoxy]ethoxy}ethyl)-2,3,4,5-tetrahydroxyhexanediamide hydrochloride], the IC50 stood at 1.1 nM.
As for `CN1Cc2c(Cl)cc(Cl)cc2[C@H](c2cccc(-c3cn(CCOCCOCCOCCNC(=O)NCCNC(=O)NCCNC(=O)NCCOCCOCCOCCn4cc(-c5cccc([C@@H]6CN(C)Cc7c(Cl)cc(Cl)cc76)c5)nn4)nn3)c2)C1` [Example 6-13, 1,1′-[Carbonylbis(iminoethane-2,1-diyl)]bis {3-[2-(2-{2-[2-(4-{3-[(4S)-6,8-dichloro-2-methyl-1,2,3,4-tetrahydroisoquinolin-4-yl]phenyl}-1H-1,2,3-triazol-1-yl)ethoxy]ethoxy}ethoxy)ethyl]urea}hydrochloride], the half-inhibitory concentration (IC50) came to 2.1 nM.
In the case of `CN1Cc2c(Cl)cc(Cl)cc2[C@H](c2cccc(-c3cn(CCOCCOCCOCCOCCNC(=O)NCCCCNC(=O)NCCOCCOCCOCCOCCn4cc(-c5cccc([C@@H]6CN(C)Cc7c(Cl)cc(Cl)cc76)c5)nn4)nn3)c2)C1` [Example 7-1, 1,1′-Butane-1,4-diylbis {3-[14-(4-{3-[(4S)-6,8-dichloro-2-methyl-1,2,3,4-tetrahydroisoquinolin-4-yl]phenyl}-1H-1,2,3-triazol-1-yl)-3,6,9,12-tetraoxatetradec-1-yl]urea}hydrochloride], the IC50 was determined as 2.2 nM.
With `CN1Cc2c(Cl)cc(Cl)cc2[C@H](c2cccc(-c3cnc(NCCOCCOCCNC(=O)NCCCCNC(=O)NCCOCCOCCNc4ncc(-c5cccc([C@@H]6CN(C)Cc7c(Cl)cc(Cl)cc76)c5)cn4)nc3)c2)C1` [Example 7-3, 1,1′-Butane-1,4-diylbis {3-[2-(2-{2-[(5-{3-[(4S)-6,8-dichloro-2-methyl-1,2,3,4-tetrahydroisoquinolin-4-yl]phenyl}pyrimidin-2-yl)amino]ethoxy}ethoxy)ethyl]urea}hydrochloride], the IC50 is 11 nM.
Under `CN1Cc2c(Cl)cc(Cl)cc2[C@H](c2cccc(-c3ccc(NCCOCCOCCNC(=O)NCCCCNC(=O)NCCOCCOCCNc4ccc(-c5cccc([C@@H]6CN(C)Cc7c(Cl)cc(Cl)cc76)c5)cn4)nc3)c2)C1` [Example 7-7, 1,1′-Butane-1,4-diylbis {3-[2-(2-{2-[(5-{3-[(4S)-6,8-dichloro-2-methyl-1,2,3,4-tetrahydroisoquinolin-4-yl]phenyl}pyridin-2-yl)amino]ethoxy}ethoxy)ethyl]urea}] stands 6.8 nM; under `CN1Cc2c(Cl)cc(Cl)cc2[C@H](c2cccc(-c3ccc(NCCOCCOCCNC(=O)Nc4ccc(NC(=O)NCCOCCOCCNc5ccc(-c6cccc([C@@H]7CN(C)Cc8c(Cl)cc(Cl)cc87)c6)cn5)cc4)nc3)c2)C1` [Example 7-8, 1,1′-Benzene-1,4-diylbis{3-[2-(2-{2-[(5-{3-[(4S)-6,8-dichloro-2-methyl-1,2,3,4-tetrahydroisoquinolin-4-yl]phenyl}pyridin-2-yl)amino]ethoxy}ethoxy)ethyl]urea}], 1080 nM.
Under `CN1Cc2c(Cl)cc(Cl)cc2[C@H](c2cccc(-c3cc(OCCOCCOCCNC(=O)Nc4ccc(NC(=O)NCCOCCOCCOc5cc(-c6cccc([C@@H]7CN(C)Cc8c(Cl)cc(Cl)cc87)c6)ncn5)cc4)ncn3)c2)C1` [Example 7-11, 1,1′-Benzene-1,4-diylbis {3-[2-(2-(2-{2-[(6-{3-[(4S)-6,8-dichloro-2-methyl-1,2,3,4-tetrahydroisoquinolin-4-yl]phenyl}pyrimidin-4-yl)oxy]ethoxy}ethoxy)ethyl]urea} trifluoroacetate] stands 33.5 nM.

One may read the IC50 as the concentration that gives 50% inhibition.
